Values of other authors as cited in patent publication US20120302647A1, “SYNTHESIS OF MAGNOLOL AND ITS ANALOGUE COMPOUNDS” (INDIAN INSTITUTE OF CHEMICAL TECHNOLOGY, priority 2010, published 2012).

How the values were obtained:
[1] = times greater than α-tocopherol
[2] = test system: cortical neuron-astrocyte mixed cultures; details: chemical hypoxia by KCN

C=CCc1ccc(O)c(-c2cc(CC=C)ccc2O)c1 [magnolol, 5,5′-diallylbiphenyl-2,2′-diol]
antioxidant activity relative to α-tocopherol [1]: 1000 times | protection of the myocardium against infarction and reperfusion injury (myocardium): protecting the myocardium against infarction and reperfusion injury | protection of neurons against chemical hypoxia [2]: protects neurons against chemical hypoxia by KCN
